In paper PMC9033620 (RSC Advances, 2021):
pKd: −log10 of the molar value.

Target: β-tubulin (Sus scrofa, UniProt P02554+Q2XVP4)
Experiment: X-ray crystal structure
Assay type: binding

Chain of β-tubulin (Q2XVP4 whole entry): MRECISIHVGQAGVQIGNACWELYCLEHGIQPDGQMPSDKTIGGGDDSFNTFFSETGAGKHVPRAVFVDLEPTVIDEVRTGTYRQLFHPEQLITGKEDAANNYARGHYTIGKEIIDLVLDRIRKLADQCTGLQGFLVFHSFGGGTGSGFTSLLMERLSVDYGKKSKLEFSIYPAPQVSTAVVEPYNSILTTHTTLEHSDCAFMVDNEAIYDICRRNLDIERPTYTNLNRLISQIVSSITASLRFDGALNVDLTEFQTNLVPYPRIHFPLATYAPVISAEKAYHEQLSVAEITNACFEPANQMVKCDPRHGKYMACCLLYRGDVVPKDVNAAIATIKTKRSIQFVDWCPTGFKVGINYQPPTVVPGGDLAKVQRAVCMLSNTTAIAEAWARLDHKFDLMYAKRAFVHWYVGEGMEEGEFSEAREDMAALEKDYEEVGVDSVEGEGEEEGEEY
Chain of β-tubulin (P02554 whole entry): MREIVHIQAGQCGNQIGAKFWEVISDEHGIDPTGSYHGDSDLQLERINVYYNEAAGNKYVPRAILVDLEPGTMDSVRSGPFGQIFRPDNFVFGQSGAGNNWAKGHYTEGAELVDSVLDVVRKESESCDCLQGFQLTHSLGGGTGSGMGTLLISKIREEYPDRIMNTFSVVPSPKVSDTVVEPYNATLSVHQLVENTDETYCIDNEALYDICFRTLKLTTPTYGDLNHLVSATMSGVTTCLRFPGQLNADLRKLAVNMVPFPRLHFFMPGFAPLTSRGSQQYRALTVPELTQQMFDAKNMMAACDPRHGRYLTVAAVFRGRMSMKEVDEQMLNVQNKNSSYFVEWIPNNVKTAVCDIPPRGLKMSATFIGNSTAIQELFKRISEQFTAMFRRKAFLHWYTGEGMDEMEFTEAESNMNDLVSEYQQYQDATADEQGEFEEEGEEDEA

`CCCCc1ccc2[nH]c(NC(=O)OC)nc2c1` [parbendazole] showed a pKd of 5.47.
